≈ marks a conversion by molar mass, not a printed value.
Experiments:
[1] = biological target: T1, Macrophage colony-stimulating factor 1 receptor (Homo sapiens, UniProt P07333); assay: Inhibition of CSF1R
NIH3T3 = assay: Antiproliferative activity against mouse 3T3 cells expressing human CSF1R after 72 hrs by Celltiter assay; assay type: functional
[2] = Aqueous solubility of the compound; assay type: physicochemical; details: buffer
[3] = Plasma protein binding assessed as percentage unbound
[4] = Bioavailability in rat at 3 mg/kg, iv and 10 mg/kg, po; assay type: ADME, organism-based; details: in vivo
[5] = Clearance in rat at 3 mg/kg, iv and 10 mg/kg, po; assay type: ADME, organism-based; details: in vivo
[6] = Volume of distribution at steady state in rat at 3 mg/kg, iv and 10 mg/kg, po; assay type: ADME, organism-based; details: in vivo, read-out: Vdss
[7] = Half life in rat at 3 mg/kg, iv and 10 mg/kg, po; assay type: ADME, organism-based; details: in vivo
Mus musculus [8] = assay: Inhibition of phosphorylated CSF1R level in 3T3/CSF1R mutant cells xenografted nude mouse at 25 mg/kg, po after 2 hrs by ELISA; assay type: functional
Mus musculus [9] = assay: Inhibition of phosphorylated CSF1R level in 3T3/CSF1R mutant cells xenografted nude mouse at 25 mg/kg, po after 6 hrs by ELISA; assay type: functional
[10] = biological target: T1, Macrophage colony-stimulating factor 1 receptor; assay: Inhibition of CSF1R at 1 uM
[11] = biological target: T2, NUAK family SNF1-like kinase 1 (Homo sapiens) (UniProt O60285); assay: Inhibition of ARK5 at 1 uM
T2 sequence (whole entry): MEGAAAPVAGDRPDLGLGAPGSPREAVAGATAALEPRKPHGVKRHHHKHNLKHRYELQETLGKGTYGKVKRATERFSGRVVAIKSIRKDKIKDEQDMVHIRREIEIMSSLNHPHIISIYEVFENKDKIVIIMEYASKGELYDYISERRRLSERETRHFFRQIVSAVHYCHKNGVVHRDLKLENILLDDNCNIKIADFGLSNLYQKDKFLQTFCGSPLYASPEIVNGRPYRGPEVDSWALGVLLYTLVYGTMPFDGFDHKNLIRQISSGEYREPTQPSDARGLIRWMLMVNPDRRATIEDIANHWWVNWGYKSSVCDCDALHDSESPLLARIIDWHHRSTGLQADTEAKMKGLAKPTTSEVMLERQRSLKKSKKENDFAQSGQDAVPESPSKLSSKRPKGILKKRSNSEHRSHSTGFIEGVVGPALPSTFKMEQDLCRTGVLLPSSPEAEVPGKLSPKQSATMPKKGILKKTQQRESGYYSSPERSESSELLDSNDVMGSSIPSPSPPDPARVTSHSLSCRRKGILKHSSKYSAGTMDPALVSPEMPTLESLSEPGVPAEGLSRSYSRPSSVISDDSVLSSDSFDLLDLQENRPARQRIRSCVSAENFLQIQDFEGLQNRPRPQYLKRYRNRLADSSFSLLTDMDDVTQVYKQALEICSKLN

[12] = biological target: ALK tyrosine kinase receptor (Homo sapiens) (UniProt Q9UM73); assay: Inhibition of ALK at 1 uM
Sequence of ALK tyrosine kinase receptor (Homo sapiens) (Q9UM73 19-1620 limits assumed): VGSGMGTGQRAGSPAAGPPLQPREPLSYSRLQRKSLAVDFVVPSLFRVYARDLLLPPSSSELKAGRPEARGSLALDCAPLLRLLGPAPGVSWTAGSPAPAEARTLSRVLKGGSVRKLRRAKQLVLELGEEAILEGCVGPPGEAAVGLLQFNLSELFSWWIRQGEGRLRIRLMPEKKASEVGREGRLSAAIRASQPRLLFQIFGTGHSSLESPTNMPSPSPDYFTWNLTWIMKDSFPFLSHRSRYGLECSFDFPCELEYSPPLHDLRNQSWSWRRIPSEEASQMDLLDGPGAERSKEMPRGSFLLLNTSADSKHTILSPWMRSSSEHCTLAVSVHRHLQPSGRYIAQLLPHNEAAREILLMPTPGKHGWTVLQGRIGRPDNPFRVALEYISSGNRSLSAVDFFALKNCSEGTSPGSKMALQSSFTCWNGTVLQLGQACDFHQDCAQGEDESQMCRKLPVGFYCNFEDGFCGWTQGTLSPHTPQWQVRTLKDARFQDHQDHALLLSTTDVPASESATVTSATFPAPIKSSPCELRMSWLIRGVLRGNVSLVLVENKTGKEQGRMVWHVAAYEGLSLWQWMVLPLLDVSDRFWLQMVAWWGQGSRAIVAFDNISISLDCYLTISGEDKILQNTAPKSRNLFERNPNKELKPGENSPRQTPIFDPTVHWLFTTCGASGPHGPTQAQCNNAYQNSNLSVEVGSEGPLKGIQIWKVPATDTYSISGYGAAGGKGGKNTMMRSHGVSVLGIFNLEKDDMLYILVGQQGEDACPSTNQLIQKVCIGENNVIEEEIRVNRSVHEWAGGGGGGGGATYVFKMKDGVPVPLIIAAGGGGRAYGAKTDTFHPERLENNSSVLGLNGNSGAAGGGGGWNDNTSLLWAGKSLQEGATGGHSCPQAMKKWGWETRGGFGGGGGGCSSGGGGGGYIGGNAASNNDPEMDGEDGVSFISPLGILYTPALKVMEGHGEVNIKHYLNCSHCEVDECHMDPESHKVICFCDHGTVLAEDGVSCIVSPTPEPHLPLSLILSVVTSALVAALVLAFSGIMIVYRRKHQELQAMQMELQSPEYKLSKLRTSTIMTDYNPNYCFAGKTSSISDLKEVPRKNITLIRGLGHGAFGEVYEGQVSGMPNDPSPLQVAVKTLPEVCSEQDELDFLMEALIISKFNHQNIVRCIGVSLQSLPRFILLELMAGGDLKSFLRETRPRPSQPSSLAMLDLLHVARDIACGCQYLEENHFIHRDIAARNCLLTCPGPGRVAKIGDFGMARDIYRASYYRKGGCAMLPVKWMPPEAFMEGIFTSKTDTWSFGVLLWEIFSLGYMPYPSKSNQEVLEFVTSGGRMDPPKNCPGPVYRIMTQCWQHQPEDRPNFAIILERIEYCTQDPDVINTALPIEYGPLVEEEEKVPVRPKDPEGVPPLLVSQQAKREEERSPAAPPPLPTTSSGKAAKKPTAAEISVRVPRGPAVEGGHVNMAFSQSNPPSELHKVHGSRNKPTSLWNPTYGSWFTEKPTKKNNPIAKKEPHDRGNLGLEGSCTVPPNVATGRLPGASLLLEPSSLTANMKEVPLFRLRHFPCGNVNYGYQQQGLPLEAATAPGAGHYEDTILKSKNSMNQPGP

[13] = biological target: Ribosomal protein S6 kinase alpha-1 (Homo sapiens) (UniProt Q15418); assay: Inhibition of RSK1 at 1 uM
Sequence of Ribosomal protein S6 kinase alpha-1 (Homo sapiens) (Q15418 whole entry): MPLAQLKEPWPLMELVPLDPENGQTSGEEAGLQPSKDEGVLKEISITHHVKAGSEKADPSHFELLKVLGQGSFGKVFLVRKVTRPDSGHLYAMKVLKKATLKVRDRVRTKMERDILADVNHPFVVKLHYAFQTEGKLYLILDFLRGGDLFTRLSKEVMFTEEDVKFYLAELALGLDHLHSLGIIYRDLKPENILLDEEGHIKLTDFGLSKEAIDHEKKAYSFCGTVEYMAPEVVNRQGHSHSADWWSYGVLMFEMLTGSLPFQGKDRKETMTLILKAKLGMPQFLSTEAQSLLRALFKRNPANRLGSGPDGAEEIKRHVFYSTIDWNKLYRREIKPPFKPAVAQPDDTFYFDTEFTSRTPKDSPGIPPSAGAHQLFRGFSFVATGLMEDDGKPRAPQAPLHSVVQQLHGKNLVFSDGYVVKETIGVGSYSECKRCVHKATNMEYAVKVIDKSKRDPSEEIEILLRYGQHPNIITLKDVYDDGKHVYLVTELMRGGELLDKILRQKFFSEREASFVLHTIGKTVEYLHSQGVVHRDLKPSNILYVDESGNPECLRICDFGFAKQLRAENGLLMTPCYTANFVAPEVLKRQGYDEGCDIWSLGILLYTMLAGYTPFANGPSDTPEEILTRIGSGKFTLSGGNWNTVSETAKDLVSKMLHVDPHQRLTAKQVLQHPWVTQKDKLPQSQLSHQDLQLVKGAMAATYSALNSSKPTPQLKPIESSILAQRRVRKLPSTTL

T1 sequence (P07333 whole entry): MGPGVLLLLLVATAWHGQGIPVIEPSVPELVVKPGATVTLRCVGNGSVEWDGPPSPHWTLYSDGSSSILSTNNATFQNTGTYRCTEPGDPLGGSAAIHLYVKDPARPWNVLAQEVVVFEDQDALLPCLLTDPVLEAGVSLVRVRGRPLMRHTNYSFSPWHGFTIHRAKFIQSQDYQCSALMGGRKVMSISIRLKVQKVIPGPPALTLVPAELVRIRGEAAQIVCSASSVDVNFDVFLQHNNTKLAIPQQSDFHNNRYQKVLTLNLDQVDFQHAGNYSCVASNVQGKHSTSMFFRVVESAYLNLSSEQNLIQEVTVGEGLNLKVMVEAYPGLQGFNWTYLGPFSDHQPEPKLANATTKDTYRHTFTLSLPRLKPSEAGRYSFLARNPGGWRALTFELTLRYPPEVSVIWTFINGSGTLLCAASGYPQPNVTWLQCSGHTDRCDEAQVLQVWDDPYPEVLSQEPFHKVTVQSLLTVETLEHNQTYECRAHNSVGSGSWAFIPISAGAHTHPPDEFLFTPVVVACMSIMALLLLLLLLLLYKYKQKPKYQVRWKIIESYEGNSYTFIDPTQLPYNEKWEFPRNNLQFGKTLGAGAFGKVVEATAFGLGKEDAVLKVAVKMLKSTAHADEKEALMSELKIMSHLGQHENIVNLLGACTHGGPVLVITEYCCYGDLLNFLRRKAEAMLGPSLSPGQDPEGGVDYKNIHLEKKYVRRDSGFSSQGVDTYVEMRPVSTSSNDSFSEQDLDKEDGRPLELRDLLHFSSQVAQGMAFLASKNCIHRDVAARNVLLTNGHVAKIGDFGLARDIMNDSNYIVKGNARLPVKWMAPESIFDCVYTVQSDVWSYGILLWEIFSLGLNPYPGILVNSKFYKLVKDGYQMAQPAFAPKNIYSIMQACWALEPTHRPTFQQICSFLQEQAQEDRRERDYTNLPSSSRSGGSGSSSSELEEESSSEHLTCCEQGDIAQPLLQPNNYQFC

Row | Structure (SMILES) | IC50 [1] [nM] | Activity (NIH3T3) [µM] | solubility [2] [µM] | fraction unbound [3] | bioavailability [4] [%] | clearance [5] [mL/min/kg] | Vd [6] [L/kg] | half-life [7] [h] | inhibition in vivo at 25 mg/kg (Mus musculus [8]) [%] | inhibition in vivo at 25 mg/kg (Mus musculus [9]) [%] | inhibition [10] [%] | inhibition [11] [%] | inhibition [12] [%] | inhibition [13] [%]
1 | COc1cc2ncc(C(N)=O)c(Nc3cccc(Cl)c3Cl)c2cc1N1CCN(C)CC1 | < 3 | 0.06 | 810 (≈ 373 µg/mL) | 0.045 | 110 | 76 | 6.8 | 2.5 | – | – | – | – | – | –
2 | CN1CCN(c2ccc3ncc(C(N)=O)c(Nc4cccc(Cl)c4Cl)c3c2)CC1 | 8 | 0.71 | 44 (≈ 18.9 µg/mL) | 0.046 | – | 190 | 5.9 | 0.7 | – | – | – | – | – | –
3 | CN1CCN(c2cc3c(Nc4ccc(F)cc4F)c(C(N)=O)cnc3cc2F)CC1 | 54 | 4.2 | 71 (≈ 29.5 µg/mL) | 0.24 | 13 | 20 | 1.4 | 1.1 | – | – | – | – | – | –
4 | CCOc1cc2ncc(C(N)=O)c(Nc3ccc(F)cc3F)c2cc1N1CCN(C)CC1 | 6 | – | 290 (≈ 128 µg/mL) | 0.11 | 100 | 12 | 2.5 | 2.1 | 90 | 65 | 96 | 51 | 23 | 21
5 | COc1cc2ncc(C(N)=O)c(Nc3ccc(Cl)cc3Cl)c2cc1N1CCN(C)CC1 | 3 | 0.64 | 160 (≈ 73.7 µg/mL) | 0.032 | – | 72 | 8.7 | 1.7 | – | – | – | – | – | –
6 | CN1CCN(c2ccc3ncc(C(N)=O)c(Nc4ccc(F)cc4F)c3c2)CC1 | 110 | 3.9 | 970 (≈ 386 µg/mL) | 0.26 | 21 | 45 | 7.6 | 1.9 | – | – | – | – | – | –
7 | CN1CCN(c2cc3c(Nc4cccc(Cl)c4Cl)c(C(N)=O)cnc3cc2F)CC1 | 3 | 0.44 | 8 (≈ 3.59 µg/mL) | 0.044 | – | 23 | 1.1 | 0.8 | – | – | – | – | – | –
8 | COc1cc2ncc(C(N)=O)c(Nc3ccc(F)cc3F)c2cc1N1CCN(C)CC1 | 6 | 1 | > 1000 | 0.25 | 90 | 15 | 2.3 | 1.8 | – | – | – | – | – | –
9 | CCOc1cc2ncc(C(N)=O)c(Nc3cccc(Cl)c3Cl)c2cc1N1CCN(C)CC1 | < 3 | – | 50 (≈ 23.7 µg/mL) | 0.02 | 100 | 57 | 3.5 | 0.9 | 75 | 45 | – | – | – | –

Reference: ChEMBL document CHEMBL1143306, “3-amido-4-anilinoquinolines as CSF-1R kinase inhibitors 2: Optimization of the PK profile” (Bioorg Med Chem Lett, 2009)
